For the assay, the target named is T1, human vasopressin V2 receptor subtype (Homo sapiens, UniProt P30518).
T1 construct: host or cells: CHO cells (pZeoSV vector)
Kind of assay: Vasopressin binding in Chinese Hamster Ovary cell membranes expressing human vasopressin V2 subtype receptors. The note with it: 100 nM, CHO cell membranes, [3H]arginine vasopressin, values without parentheses. The procedure, abridged:
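Radioligand displacement on membranes from CHO cells stably expressing human V2 receptor, 25 to 50 μg protein/well, in 50 mM Tris-HCl pH 7.4 with MgCl2, BSA and protease inhibitors. [^3H]arginine vasopressin (8 nM working solution) incubated 60 min at room temperature; bound label measured by filtration and scintillation counting.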

T1 sequence (P30518 whole entry): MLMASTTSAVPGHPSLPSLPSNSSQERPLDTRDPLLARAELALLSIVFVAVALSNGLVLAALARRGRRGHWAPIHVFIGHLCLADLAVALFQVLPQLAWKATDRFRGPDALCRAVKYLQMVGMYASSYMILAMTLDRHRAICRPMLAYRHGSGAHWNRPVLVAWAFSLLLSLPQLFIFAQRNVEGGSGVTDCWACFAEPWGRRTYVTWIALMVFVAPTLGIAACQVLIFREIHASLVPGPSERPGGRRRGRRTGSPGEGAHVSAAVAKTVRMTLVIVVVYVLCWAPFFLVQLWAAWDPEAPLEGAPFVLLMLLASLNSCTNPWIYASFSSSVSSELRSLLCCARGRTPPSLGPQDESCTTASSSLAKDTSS

With `COc1cc(C(=O)N2Cc3ccc(C(=O)N4CCN(CCN(C)C)CC4)n3Cc3ccccc32)ccc1-c1cccc2ccccc12` [Example 203, {4-[2-(Dimethylamino)ethyl]-1-piperazinyl}{10-[3-methoxy-4-(1-naphthyl)benzoyl]-10,11-dihydro-5H-pyrrolo[2,1-c][1,4]benzodiazepin-3-yl}methanone], the inhibition at 0.1 µM is 28%.
`COc1ccccc1-c1ccc(C(=O)N2Cc3ccc(C(=O)N4CCN(CCN(C)C)CC4)n3Cc3ccccc32)cc1OC` [Example 204, {10-[(2,2′-Dimethoxy[1,1′-biphenyl]-4-yl)carbonyl]-10,11-dihydro-5H-pyrrolo[2,1-c][1,4]benzodiazepin-3-yl}{4-[2-(dimethylamino)ethyl]-1-piperazinyl}methanone]: the inhibition at 0.1 µM turned out to be 6%.
With `CN(C)CCN1CCN(C(=O)c2ccc3n2Cc2ccccc2N(C(=O)c2ccc(-c4cccc5ccccc45)cc2Cl)C3)CC1` [Example 205, {10-[2-Chloro-4-(1-naphthyl)benzoyl]-10,11-dihydro-5H-pyrrolo[2,1-c][1,4]benzodiazepin-3-yl}{4-[2-(dimethylamino)ethyl]-1-piperazinyl}methanone], the inhibition at 0.1 µM was found to be 18%.
Consider `COc1cccc(-c2ccc(C(=O)N3Cc4ccc(C(=O)N5CCN(CCN6CCOCC6)CC5)n4Cc4ccccc43)cc2C)c1` [Example 208, {10-[(3′-Methoxy-2-methyl[1,1′-biphenyl]-4-yl)carbonyl]-10,11-dihydro-5H-pyrrolo[2,1-c][1,4]benzodiazepin-3-yl}{4-[2-(4-morpholinyl)ethyl]-1-piperazinyl}methanone], for which the inhibition at 0.1 µM stood at 12%.
Consider `Cc1ccccc1-c1ccc(C(=O)N2Cc3ccc(C(=O)N4CCN(CCN5CCOCC5)CC4)n3Cc3ccccc32)cc1` [Example 209, {10-[(2′-Methyl[1,1′-biphenyl]-4-yl)carbonyl]-10,11-dihydro-5H-pyrrolo[2,1-c][1,4]benzodiazepin-3-yl}{4-[2-(4-morpholinyl)ethyl]-1-piperazinyl}methanone], for which the inhibition at 0.1 µM was found to be 10%.
As to `COc1cc(C(=O)N2Cc3ccc(C(=O)N4CCN(CCN5CCOCC5)CC4)n3Cc3ccccc32)ccc1-c1ccccc1C` [Example 210, {10-[(2-Methoxy-2′-methyl[1,1′-biphenyl]-4-yl)carbonyl]-10,11-dihydro-5H-pyrrolo[2,1-c][1,4]benzodiazepin-3-yl}{4-[2-(4-morpholinyl)ethyl]-1-piperazinyl}methanone], the inhibition at 0.1 µM was 17%.
Take `COc1cccc(-c2ccc(C(=O)N3Cc4ccc(C(=O)N5CCN(CCN6CCOCC6)CC5)n4Cc4ccccc43)cc2OC)c1` [Example 211, {10-[(2,3′-Dimethoxy[1,1′-biphenyl]-4-yl)carbonyl]-10,11-dihydro-5H-pyrrolo[2,1-c][1,4]benzodiazepin-3-yl}{4-[2-(4-morpholinyl)ethyl]-1-piperazinyl}methanone]: the inhibition at 0.1 µM was 23%.
With `COc1cc(C(=O)N2Cc3ccc(C(=O)N4CCN(CCN5CCOCC5)CC4)n3Cc3ccccc32)ccc1-c1cccc2ccccc12` [Example 213, {10-[3-Methoxy-4-(1-naphthyl)benzoyl]-10,11-dihydro-5H-pyrrolo[2,1-c][1,4]benzodiazepin-3-yl}{4-[2-(4-morpholinyl)ethyl]-1-piperazinyl}methanone], the inhibition at 0.1 µM amounted to 33%.
Take `COc1ccccc1-c1ccc(C(=O)N2Cc3ccc(C(=O)N4CCN(CCN5CCOCC5)CC4)n3Cc3ccccc32)cc1OC` [Example 214, {10-[(2,2′-Dimethoxy[1,1′-biphenyl]-4-yl)carbonyl]-10,11-dihydro-5H-pyrrolo[2,1-c][1,4]benzodiazepin-3-yl}{4-[2-(4-morpholinyl)ethyl]-1-piperazinyl}methanone]: the inhibition at 0.1 µM was 11%.
As for `O=C(c1ccc2n1Cc1ccccc1N(C(=O)c1ccc(-c3cccc4ccccc34)cc1Cl)C2)N1CCN(CCN2CCOCC2)CC1` [Example 215, {10-[2-Chloro-4-(1-naphthyl)benzoyl]-10,11-dihydro-5H-pyrrolo[2,1-c][1,4]benzodiazepin-3-yl}{4-[2-(4-morpholinyl)ethyl]-1-piperazinyl}methanone], the inhibition at 0.1 µM was found to be 22%.

One may read the inhibition as the share of the control response that was lost under treatment.

Source of the values: patent publication US7109193B2, “Tricyclic diazepines tocolytic oxytocin receptor antagonists” (Wyeth, priority 2001, dated 2006).
